Results reported in patent US7550438B2, “Methods for production of growth-promoting proteins and peptides for kidney epithelial cells” (The University of Chicago, priority 1997, dated 2009).

Key:
BSC-1 cells [1] = assay: Appearance or release of WGF growth-promoting activity from BSC-1 cells (scrape wounding, heparinase); format: cell-based, African green monkey; conditions: for appearance of growth-promoting activity after wounding: cells preincubated 10 minutes with the protease inhibitor
Protocol: None of these agents inhibited cell growth when added to cells of nonwounded cultures. When added to the medium after the appearance of WGF mitogenic activity, neither PMSF nor aprotinin appeared to inhibit the increment in cell proliferation.
Confluent monolayer cultures were mechanically scraped using a 200 μL pipet tip (Continental Laboratory Products, San Diego, Calif.). […] (This process of scraping the cells has been termed “wounding” and has been used for many years as a model system to study repair of corneal abrasions of the eye. In effect, pressure is applied to cells sufficient to disrupt intercellular adhesion). To determine whether kidney epithelial cells released an autocrine growth factor into the medium after wounding, conditioned culture medium was removed from the culture dish after scrape-wounding a monolayer of BSC-1 cells. An aliquot was assayed for any growth-promoting activity on a nonwounded “detector” culture (1.2×10^6 cells per […]).
Treatment of a confluent monolayer of BSC-1 cells with the enzyme heparinase I (Sigma), but not heparinase III (Sigma), releases WGF mitogenic activity from cells into the culture media. However, this seems to deplete WGF, at least temporarily. When cells are first treated with heparinase I, rinsed, the media aspirated, and the monolayer is then scrape-wounded, no growth-promoting activity is detected in the conditioned media.

[2] = tested on: monkey kidney epithelial cells of the BSC-1 line; assay: Growth-promoting (mitogenic) activity: number of cells in BSC-1 cultures counted four days after addition; format: cell-based, African green monkey
Protocol: For the assay, cells were detached from the dish with a solution of trypsin and an aliquot was counted in a hemocytometer.
Nontransformed monkey kidney epithelial cells of the BSC-1 line were grown to confluence in Dulbecco's modified Eagle's medium containing 1% calf serum and […] in 55-mm culture dishes at 38° C. in a CO2 incubator. When cells achieved a density of about 10^6 per dish, the spent medium was removed and replaced with fresh medium containing 0.5% calf serum and the 14-amino acid peptide (0.5 μg/ml). Additions of each of the mitogenic signals at maximal concentration were made to the culture medium. Four days later the number of cells in each culture was counted in a hemocytometer. Values obtained were the mean of 3 separate cultures.
Nontransformed monkey kidney epithelial cells of the BSC-1 line were grown to confluence in Dulbecco's modified Eagle's medium containing 1% calf serum and 1.6 μM biotin at 38° C. in a CO2 incubator. When cells achieved a density of about 10^6 per dish, the spent medium was removed and replaced with fresh medium containing 0.5% calf serum and different amounts of the two peptides. Four days later the number of cells in each culture was counted. Each value is the mean of 3 separate cultures.
To delineate the sequence of the smallest peptide that could stimulate renal cell growth, synthetic peptides of different lengths were prepared (see below), and purified by reversed-phase HPLC on a C18 column.
The peptide of interest was then purified on a reversed-phase C18 column HPLC as described herein using a gradient of 1-80% acetonitrile in 0.1% trifluroacetic acid (TFA). The purified peptide was then lyophilized to remove the acetonitrile and TFA and the lyophilized powder was weighed, dissolved in buffer and added to the culture medium to measure its effect on the growth of monkey kidney epithelial cells as described herein. […] A value termed the K1/2, was used.

BSC-1 cells [3] = assay: Time of contact with cells required to commit them to accelerated growth (washout, count at four days); format: cell-based, African green monkey; conditions: peptide then washed off, cells counted four days later
Protocol: Confluent monolayers of BSC-1 cells are prepared as herein and exposed to the 14-Ser peptide (0.5 μg/ml) for different amounts of time (0 to 30 minutes). At the end of the defined exposure period, culture medium containing the mitogen was aspirated, the monolayer was rinsed to remove non-adherent peptide, and fresh medium was added. Four days later the number of cells in the culture was counted.
In these experiments a solution containing the peptide of interest was added to the cell monolayer; culture medium was then aspirated at a specified time thereafter. Then fresh medium without the peptide was added and the number of cells was counted four days later.

[4] = tested on: rats with mercuric chloride-induced acute renal failure; assay: Mercuric chloride-induced acute renal failure in rats: survival and renal function; format: in vivo, rat
Description: Nephrotoxic and ischemic acute renal failure (ARF) induced experimentally in rats have long been used to model this syndrome in humans. […] Male rats weighed 200-225 gm at the start of the experiment. This dose was used because preliminary experiments indicated it results in survival of 25-50% of the animals 7 days later. […] An increase in serum creatinine concentration signals a decline in renal function because the injured kidney is unable to excrete endogenous creatinine in the urine so it accumulates in the blood.
The synthetic peptide […] (14-Ser) (SEQ ID NO: 15) (dissolved in sterile 0.01% bovine serum albumin in phosphate-buffered saline) was injected subcutaneously into rats to determine its effect on survival, recovery of renal fucntion, and stimulation of DNA synthesis. Multiple different peptides were studied including 14-Ser, […] (14-mer) (SEQ ID NO: 39), […] (16-mer) (SEQ ID NO: 4) […] (11-mer) (SEQ ID NO: 6), and […] (11-mer) (SEQ ID NO: 41). Different concentrations and times of administration were tested and compared.
Acute tubular necrosis was induced in 44 rats by the subcutaneous (s.c.) injection of mercuric chloride, and a single dose of 14-ser was administered s.c. 1 hour afterwards. Different amounts of the peptide were given to assesses its capacity to affect the outcome. Survival 7 days later was about twice as high in animals given 100-150 μg of peptide (63%) than in rats given 0-75 μg peptide (29%).
To determine the effect of the peptide on survival and recovery of renal function, acute tubular necrosis was induced in 59 rats; 29 received 14-Ser (100 μg/rat) and 30 received an equal volume of the vehicle s.c. 1 hour after administration of mercuric chloride. Enhanced survival (top panel) and renal functional recovery (bottom panel) of rats give a WGF-derived peptide after mercuric chloride-induced acute tubular necrosis are shown in FIG. 2A and FIG. 2B. Mercuric chloride was injected subcutaneously into each of the 59 rats, and 1 hour later 100 μg of WGF peptide (14-Ser) (n=29 rats) or the vehicle […] was given. Survival was greater in rats given the peptide than in animals receiving the vehicle as early as day 3 after administration of mercuric chloride. Blood was obtained from the tail vein on the days indicated, and serum creatinine concentration was measured. […] On days 2, 3 and 4, the lower creatinine concentration in peptide-treated rats indicates accelerated recovery of kidney function.
Experimental ARF was induced in rats by subcutaneous injection of mercuric chloride. The synthetic peptide […] […] In one experiment a total of 17 rats were injected with a dose of mercuric chloride shown to induce ARF. The different amounts of the peptide (known to stimulate growth of kidney cells in culture) were injected into the animals to assess capacity to improve the outcome. […] In contrast, two of three rats given 100 micrograms of peptide were alive, as were five of six given 200 micrograms. In summary, none of eight rats (0%) given up to 50 micrograms of peptide survived, whereas seven of nine (78%) given 100-200 micrograms did. Thus, the 11-mer WGF peptide improves survival in nephrotoxic ARF.
[…] Four days later, 63% of rats given the 14-Ser peptide were alive compared to 25% of animals receiving the vehicle (chi squared, P-0.0499); 50% of rats receiving EGF were alive (chi squared, P=N.S.). On day 5, 50% of rats given EGF were alive, compared to 12.5% of animals given the vehicle (chi squared, P=0.0436). […] These observations indicate that the 14-Ser peptide and EGF given after renal injury are similar in their ability to improve survival from the ARF syndrome.

O=S(=O)(F)Cc1ccccc1 [PMSF, phenylmethylsulfonyl-fluoride]
appearance of growth-promoting activity after wounding (BSC-1 cells [1]): prevented

Cc1ccc(S(=O)(=O)N[C@@H](CCCCN)C(=O)CCl)cc1.Cl [TLCK, L-1-chloro-3-(4-tosylamido)-7-amino-2-heptanone-hydrochloride]
appearance of growth-promoting activity after wounding (BSC-1 cells [1]): prevented

aprotinin
appearance of growth-promoting activity after wounding (BSC-1 cells [1]): prevented

epidermal growth factor [EGF, reference compound]
concentration equivalent in mitogenic potency to partially-purified WGF [2]: 0.015 µg/mL | stimulation of growth (increase in cell number compared to control at four days) ([2]; agent alone at maximal mitogenic concentration (14-Ser 0.5 μg/ml; EGF, IGF-I 50 ng/ml; acidic FGF 100 pg/ml; basic FGF 1,000 pg/ml; vasopressin 75 pg/ml; K 10.4 mM; Na 180 mM)): 31% | combined mitogenic effect with WGF (additivity) ([2]; maximal concentrations, 11-mer with wound conditioned buffer): additive | stimulation of growth in the presence of the 14-Ser peptide ([2]; mitogenic signal at maximal concentration plus 14-Ser peptide 0.5 μg/ml, four days): 61% | exposure time sufficient for maximal growth stimulation (commitment time) (BSC-1 cells [3]): 4 min | survival on day 6 ([4]; 14-Ser 100 μg 1 hour after, EGF 20 μg 2 hours after mercuric chloride, vehicle 12%): 37.5% | survival four days later ([4]; 14-Ser 100 μg s.c. 1 hour after, EGF 20 μg s.c. 2 hours after mercuric chloride 2.25 mg/kg, vehicle 25%): 50% | survival on day 5 ([4]; EGF 20 μg s.c. 2 hours after mercuric chloride, vehicle 12.5%): 50% | survival on day 4 ([4]; given 24 hours before mercuric chloride (EGF 20 μg, s.c.)): 25%

B1: heparinase I: enzyme heparinase I (Sigma) (protein, UniProt Q05819 22-384, looked up)
Heparin lyase I: QQKKSGNIPYRVNVQADSAKQKAIIDNKWVAVGINKPYALQYDDKLRFNGKPSYRFELKAEDNSLEGYAAGETKGRTELSYSYATTNDFKKFPPSVYQNAQKLKTVYHYGKGICEQGSSRSYTFSVYIPSSFPDNATTIFAQWHGAPSRTLVATPEGEIKTLSIEEFLALYDRMIFKKNIAHDKVEKKDKDGKITYVAGKPNGWKVEQGGYPTLAFGFSKGYFYIKANSDRQWLTDKADRNNANPENSEVMKPYSSEYKTSTIAYKMPFAQFPKDCWITFDVAIDWTKYGKEANTILKPGKLDVMMTYTKNKKPQKAHIVNQQEILIGRNDDDGYYFKFGIYRVGNSTVPVTYNLSGYSETAR
release of WGF mitogenic activity from cells into the culture media (BSC-1 cells [1]; confluent monolayer treated with the enzyme): releases

B2: α2-macroglobulin (protein, UniProt P01023 24-1474, looked up)
Alpha-2-macroglobulin: SVSGKPQYMVLVPSLLHTETTEKGCVLLSYLNETVTVSASLESVRGNRSLFTDLEAENDVLHCVAFAVPKSSSNEEVMFLTVQVKGPTQEFKKRTTVMVKNEDSLVFVQTDKSIYKPGQTVKFRVVSMDENFHPLNELIPLVYIQDPKGNRIAQWQSFQLEGGLKQFSFPLSSEPFQGSYKVVVQKKSGGRTEHPFTVEEFVLPKFEVQVTVPKIITILEEEMNVSVCGLYTYGKPVPGHVTVSICRKYSDASDCHGEDSQAFCEKFSGQLNSHGCFYQQVKTKVFQLKRKEYEMKLHTEAQIQEEGTVVELTGRQSSEITRTITKLSFVKVDSHFRQGIPFFGQVRLVDGKGVPIPNKVIFIRGNEANYYSNATTDEHGLVQFSINTTNVMGTSLTVRVNYKDRSPCYGYQWVSEEHEEAHHTAYLVFSPSKSFVHLEPMSHELPCGHTQTVQAHYILNGGTLLGLKKLSFYYLIMAKGGIVRTGTHGLLVKQEDMKGHFSISIPVKSDIAPVARLLIYAVLPTGDVIGDSAKYDVENCLANKVDLSFSPSQSLPASHAHLRVTAAPQSVCALRAVDQSVLLMKPDAELSASSVYNLLPEKDLTGFPGPLNDQDNEDCINRHNVYINGITYTPVSSTNEKDMYSFLEDMGLKAFTNSKIRKPKMCPQLQQYEMHGPEGLRVGFYESDVMGRGHARLVHVEEPHTETVRKYFPETWIWDLVVVNSAGVAEVGVTVPDTITEWKAGAFCLSEDAGLGISSTASLRAFQPFFVELTMPYSVIRGEAFTLKATVLNYLPKCIRVSVQLEASPAFLAVPVEKEQAPHCICANGRQTVSWAVTPKSLGNVNFTVSAEALESQELCGTEVPSVPEHGRKDTVIKPLLVEPEGLEKETTFNSLLCPSGGEVSEELSLKLPPNVVEESARASVSVLGDILGSAMQNTQNLLQMPYGCGEQNMVLFAPNIYVLDYLNETQQLTPEIKSKAIGYLNTGYQRQLNYKHYDGSYSTFGERYGRNQGNTWLTAFVLKTFAQARAYIFIDEAHITQALIWLSQRQKDNGCFRSSGSLLNNAIKGGVEDEVTLSAYITIALLEIPLTVTHPVVRNALFCLESAWKTAQEGDHGSHVYTKALLAYAFALAGNQDKRKEVLKSLNEEAVKKDNSVHWERPQKPKAPVGHFYEPQAPSAEVEMTSYVLLAYLTAQPAPTSEDLTSATNIVKWITKQQNAQGGFSSTQDTVVALHALSKYGAATFTRTGKAAQVTIQSSGTFSSKFQVDNNNRLLLQQVSLPELPGEYSMKVTGEGCVYLQTSLKYNILPEKEEFPFALGVQTLPQTCDEPKAHTSFQISLSVSYTGSRSASNMAIVDVKMVSGFIPLKPTVKMLERSNHVSRTEVSSNHVLIYLDKVSNQTLSLFFTVLQDVPVRDLKPAIVKVYDYYETDEFAIAEYNAPCSKDLGNA
appearance of growth-promoting activity after wounding (BSC-1 cells [1]): prevented
